From patent US6838467B2, “Dosing regimen” (Janssen Pharmaceutica N. V., priority 2000, dated 2005)

Columns and labels:
Assay type in all cases: in vivo
[1] = system: T24 H-ras transformed NIH3T3 cell tumors; experiment: Tumor studies in nude mice: T24 H-ras tumors, oral compound 1
Text: (§1) Cell Culture: CAPAN-2 human pancreatic carcinoma cells were purchased from the American Type Culture Collection (Rockville, Md.). Cells were maintained in McCoys 5A Medium supplemented with 10% fetal calf serum and penicillin-streptomycin. NIH 3T3 cells transfected with the activated T24 H-ras oncogene (T24 cells ) were obtained from, Janssen Research Foundation (For methods see Parada, L. F., Tabin, C. J., Shih, C., and Weinberg, R Human EJ bladder carcinoma oncogene is
homologue of Harvey sarcoma virus ras gene. Nature 297: 474-478, 1982.; Santos, E., Tronick, S. R., Aaronson, S. A., Pulciani, S., and Barbacid, M. T24 human bladder carcinoma oncogene is an activated form of the normal human homologue of BALB-and Harvey-MSV transforming genes. Nature 298: 343-347, 1982.) T24 cells were maintained as monolayer cultures in Dulbecco's Modified Eagle's Medium (DMEM) supplemented with 10% Nu-serum Type IV (Collaborative Biomedical Products, Bedford, Mass. and 40 μg/ml G418 (Geneticin®, GIBCO-BRL, Gaithersburg, Md.).
(§2) Animals: Female nu/nu immunodeficient nude mice (42 days old) were purchased from Charles River Laboratories (Wilmington, Mass.). Mice were housed five per cage in microisolator cages placed in laminar flow shelving to maintain sterility. All bedding, food, water and cages were autoclaved. Animals were handled within the sterile confines of a laminar flow cabinet. The mice were otherwise maintained under standard vivarium conditions. Tumor studies were conducted under a protocol approved by the Institutional Animal Care and Use Committee.
(§3) Tumor Studies In Nude Mice: Cells growing as monolayers in T150 tissue culture flasks were detached by trypsinization with 10 ml of 0.05% trypsin plus 0.53 mM EDTA per flask. Tumor cell suspensions were pooled and trypsin was inactivated by the addition of serum containing medium (10 ml per 40 ml of trypsin cell suspension). Cells were collected by centrifugation and resuspended in Hank's Balanced Salt Solution (HBSS) warmed to 37° C. A 1.0 ml portion of cell suspension was added to 20 ml of diluent and counted on a Coulter particle counter. The cell suspensions were recentrifuged and resuspended at a concentration of 1×10^6 cell per 0.10 ml of HBSS. Mice were inoculated with a single subcutaneous injection of 0.10 ml of tumor cell suspension in the inguinal region. Mice were housed five per cage with 15 mice assigned to each treatment group. Body weight and tumor size as determined by caliper measurements were measured weekly. The caliper measurements of length and width were multiplied to obtain tumor areas. At the end of study, mice were sacrificed by CO2 asphyxiation.
Three days after tumor inoculation, the five day treatment with (R)-6-[amino(4-chlorophenyl)(1-methyl-1H-imidazol-5yl)methyl]-4-(3-chlorophenyl)-1-methyl-2(1H)-quinolinone (compound 1) was initiated. Compound 1 was administered once daily by oral gavage in a 20% beta-cyclodextrin vehicle as a volume of 0.10 ml of solution per 10 gm body weight. Control groups received the same dosage volume of the 20% beta-cyclodextrin vehicle.
Compounds. Compound 1 was prepared for oral administration by dissolving the compound first as a 2× concentrated stock in 40% hydroxypropyl beta cyclodextrin (lot no. 051-071/1) in 0.1 N HCI. Compound 1 was dissolved by stirring vigorously approximately 30 minutes followed by sonication for 10 min. The compound 1 solutions were brought to a final concentration by diluting 1:1 with 0.1 N HCI. The final drug solutions were sterile filtered immediately and transferred to sterile tubes. Solutions were stored refrigerated and protected form light during the course of the study and sterility was maintained by opening solutions under sterile laminar flow conditions.

[2] = system: T24 H-ras transformed NIH3T3 cell tumors; experiment: as above; settings: for duration of response (tumor suppressive effect): five-day dosing schedule
[3] = system: CAPAN-2 human pancreatic tumors; experiment: Tumor studies in nude mice: CAPAN-2 tumors, oral compound 1; settings: for tumor growth, continuous schedule: continuous for 18 days, previous study
Text: as §1, §2, §3
[…] […] Control groups received the same dosage volume of the 20% beta-cyclodextrin vehicle.
[…] […] […] […] The final drug solutions were sterile filtered immediately and transferred to sterile tubes. Solutions were stored refrigerated and protected form light during the course of the study and sterility was maintained by opening solutions under sterile laminar flow conditions.

[4] = 50, 100 and 200 mg/kg, five-day schedule, day 17

## Cn1cncc1[C@@](N)(c1ccc(Cl)cc1)c1ccc2c(c1)c(-c1cccc(Cl)c1)cc(=O)n2C [compound 1, (R)-6-[amino(4-chlorophenyl)(1-methyl-1H-imidazol-5yl)methyl]-4-(3-chlorophenyl)-1-methyl-2(1H)-quinolinone]
[1]; 50 mg/kg, five-day dosing schedule
  duration of response (tumor suppressive effect): waned by day 14
[1]; 200 mg/kg once daily p.o. for five days (days 3-8 after tumor inoculation), day 17
  tumor size on day 17: small tumors
[1]; 200 mg/kg, five-day schedule, day 17
  reduction of final tumor weights: 90%
[1]; [4]
  reduction of tumor growth measured as final tumor area: Significant, dose-related reductions
  reduction of tumor growth measured as final tumor weights: Significant, dose-related reductions
[1]; additional 5-day treatment with 200 mg/kg starting on day 21
  tumor growth after additional 5-day treatment: again arrested but not as dramatically as in the initial treatment
[2]; 100 mg/kg
  duration of response (tumor suppressive effect): waned by day 14
[2]; 200 mg dose
  duration of response (tumor suppressive effect): sustained effects out to day 17
[2]; 200 mg/kg once daily p.o. for five days, no further treatment
  day by which tumors left untreated returned to rapid control growth rates: ≤ 24 days
[2]; single 200 mg/kg dose three days after tumor inoculation
  duration of sustained inhibition of tumor growth: 15 days
[2]; single 400 mg/kg dose three days after tumor inoculation
  duration of sustained inhibition of tumor growth: 15 days
[3]; 50 mg/kg twice daily (100 mg/kg total daily dose)
  tumor growth, continuous schedule: significant reductions of tumor growth
[3]; 100 mg/kg twice daily (200 mg/kg daily dose)
  tumor growth, continuous schedule: significant reductions of tumor growth
[3]; 200 mg/kg for five days, no further treatment
  tumor growth after day 24 without further treatment: returned to the growth rate observed for vehicle treated controls
[3]; 200 mg/kg p.o. once daily for five days, started three days after inoculation
  growth of CAPAN-2 tumors: significantly reduced the growth of CAPAN-2 tumors out to day 24
[3]; additional five-day treatment on days 21 to 25, significant on day 28
  tumor growth after additional five-day treatment: transient growth arrest
